Results from PubChem BioAssay AID1259407 (Chemical Carcinogenesis Research Information System (CCRIS), 2018).
Calls of active or inactive are those of the source. How the calls were made is not given here.

Test system: CCRIS mutagenicity, Ames/micronucleus/aberration tests
Experiment: CCRIS mutagenicity studies
[1] = Test System: AMES SALMONELLA TYPHIMURIUM, Strain/Indicator: TA97, Metabolic Activation: NONE, Method: PREINCUBATION
[2] = Test System: AMES SALMONELLA TYPHIMURIUM, Strain/Indicator: TA98, Metabolic Activation: NONE, Method: PREINCUBATION
[3] = Test System: AMES SALMONELLA TYPHIMURIUM, Strain/Indicator: TA100, Metabolic Activation: NONE, Method: PREINCUBATION
[4] = Test System: AMES SALMONELLA TYPHIMURIUM, Strain/Indicator: TA1535, Metabolic Activation: NONE, Method: PREINCUBATION
[5] = Test System: AMES SALMONELLA TYPHIMURIUM, Strain/Indicator: TA100, Metabolic Activation: NONE, Method: LIQUID INCUBATION
[6] = Test System: AMES SALMONELLA TYPHIMURIUM, Strain/Indicator: TA98, Metabolic Activation: NONE, Method: STANDARD PLATE
[7] = Test System: AMES SALMONELLA TYPHIMURIUM, Strain/Indicator: TA100, Metabolic Activation: NONE, Method: STANDARD PLATE

Structure (SMILES): N#CCCO
- mutagenic call (Test System: AMES SALMONELLA TYPHIMURIUM, Strain/Indicator: TA97, Metabolic Activation: HAMSTER, LIVER, S-9, AROCLOR 1254 (10 OR 30%), Method: PREINCUBATION): inactive; negative
- mutagenic call [1]: inactive; negative
- mutagenic call (Test System: AMES SALMONELLA TYPHIMURIUM, Strain/Indicator: TA97, Metabolic Activation: RAT, LIVER, S-9, AROCLOR 1254 (10 OR 30%), Method: PREINCUBATION): inactive; negative
- mutagenic call (Test System: AMES SALMONELLA TYPHIMURIUM, Strain/Indicator: TA98, Metabolic Activation: HAMSTER, LIVER, S-9, AROCLOR 1254 (10 OR 30%), Method: PREINCUBATION): inactive; negative
- mutagenic call [2]: inactive; negative
- mutagenic call (Test System: AMES SALMONELLA TYPHIMURIUM, Strain/Indicator: TA98, Metabolic Activation: RAT, LIVER, S-9, AROCLOR 1254 (10 OR 30%), Method: PREINCUBATION): inactive; negative
- mutagenic call (Test System: AMES SALMONELLA TYPHIMURIUM, Strain/Indicator: TA100, Metabolic Activation: HAMSTER, LIVER, S-9, AROCLOR 1254 (10 OR 30%), Method: PREINCUBATION): inactive; negative
- mutagenic call [3]: inactive; negative
- mutagenic call (Test System: AMES SALMONELLA TYPHIMURIUM, Strain/Indicator: TA100, Metabolic Activation: RAT, LIVER, S-9, AROCLOR 1254 (10 OR 30%), Method: PREINCUBATION): inactive; negative
- mutagenic call (Test System: AMES SALMONELLA TYPHIMURIUM, Strain/Indicator: TA1535, Metabolic Activation: HAMSTER, LIVER, S-9, AROCLOR 1254 (10 OR 30%), Method: PREINCUBATION): inactive; negative
- mutagenic call [4]: inactive; negative
- mutagenic call (Test System: AMES SALMONELLA TYPHIMURIUM, Strain/Indicator: TA1535, Metabolic Activation: RAT, LIVER, S-9, AROCLOR 1254 (10 OR 30%), Method: PREINCUBATION): inactive; negative

Structure (SMILES): Cc1ccc(N(CC2(O)OC[C@@H](O)[C@@H](O)[C@@H]2O)N=O)cc1 (stereo not given in full)
- mutagenic call [5]: active; positive

Structure (SMILES): Cc1oc(=O)oc1CN1CCN(c2cc3c(cc2F)c(=O)c(C(=O)O)c2n3C(C)S2)CC1 (stereo not given)
- mutagenic call [2]: inactive; negative
- mutagenic call (Test System: AMES SALMONELLA TYPHIMURIUM, Strain/Indicator: TA98, Metabolic Activation: RAT, LIVER, S-9, PHENOBARBITAL AND 5,6-BENZOFLAVONE, Method: PREINCUBATION): inactive; negative
- mutagenic call [3]: inactive; negative
- mutagenic call (Test System: AMES SALMONELLA TYPHIMURIUM, Strain/Indicator: TA100, Metabolic Activation: RAT, LIVER, S-9, PHENOBARBITAL AND 5,6-BENZOFLAVONE, Method: PREINCUBATION): inactive; negative
- mutagenic call [4]: inactive; negative
- mutagenic call (Test System: AMES SALMONELLA TYPHIMURIUM, Strain/Indicator: TA1535, Metabolic Activation: RAT, LIVER, S-9, PHENOBARBITAL AND 5,6-BENZOFLAVONE, Method: PREINCUBATION): inactive; negative
- mutagenic call (Test System: AMES SALMONELLA TYPHIMURIUM, Strain/Indicator: TA1537, Metabolic Activation: NONE, Method: PREINCUBATION): inactive; negative
- mutagenic call (Test System: AMES SALMONELLA TYPHIMURIUM, Strain/Indicator: TA1537, Metabolic Activation: RAT, LIVER, S-9, PHENOBARBITAL AND 5,6-BENZOFLAVONE, Method: PREINCUBATION): inactive; negative
- mutagenic call (Test System: E. COLI, Strain/Indicator: WP2 UVRA, Metabolic Activation: NONE, Method: PREINCUBATION): inactive; negative
- mutagenic call (Test System: E. COLI, Strain/Indicator: WP2 UVRA, Metabolic Activation: RAT, LIVER, S-9, PHENOBARBITAL AND 5,6-BENZOFLAVONE, Method: PREINCUBATION): inactive; negative

Structure (SMILES): CC(C)=C(Cl)C=O
- mutagenic call (Test System: AMES SALMONELLA TYPHIMURIUM, Strain/Indicator: TA98, Metabolic Activation: NONE, Method: PREINCUBATION, LIQUID INCUBATION): inactive; negative
- mutagenic call [5]: active; positive
- mutagenic call (Test System: AMES SALMONELLA TYPHIMURIUM, Strain/Indicator: TA100, Metabolic Activation: NONE, Method: PREINCUBATION, LIQUID INCUBATION): active; positive
- mutagenic call (Test System: AMES SALMONELLA TYPHIMURIUM, Strain/Indicator: TA1538, Metabolic Activation: NONE, Method: PREINCUBATION, LIQUID INCUBATION): inactive; negative

Structure (SMILES): C=C(C)C(=O)OCCOC(=O)NCCC(C)CC(C)(C)CNC(=O)OCCOC(=O)C(=C)C (stereo not given)
- mutagenic call (Test System: AMES SALMONELLA TYPHIMURIUM, Strain/Indicator: TA97A, Metabolic Activation: NONE, Method: STANDARD PLATE): inactive; negative
- mutagenic call (Test System: AMES SALMONELLA TYPHIMURIUM, Strain/Indicator: TA97A, Metabolic Activation: RAT LIVER S-9, PHENOBARBITAL AND BETA-NAPHTHAFLAVONE, Method: STANDARD PLATE): inactive; negative
- mutagenic call [6]: inactive; negative
- mutagenic call (Test System: AMES SALMONELLA TYPHIMURIUM, Strain/Indicator: TA98, Metabolic Activation: RAT LIVER S-9, PHENOBARBITAL AND BETA-NAPHTHAFLAVONE, Method: STANDARD PLATE): inactive; negative
- mutagenic call [7]: inactive; negative
- mutagenic call (Test System: AMES SALMONELLA TYPHIMURIUM, Strain/Indicator: TA100, Metabolic Activation: RAT LIVER S-9, PHENOBARBITAL AND BETA-NAPHTHAFLAVONE, Method: STANDARD PLATE): inactive; negative
- mutagenic call (Test System: AMES SALMONELLA TYPHIMURIUM, Strain/Indicator: TA102, Metabolic Activation: NONE, Method: STANDARD PLATE): inactive; negative
- mutagenic call (Test System: AMES SALMONELLA TYPHIMURIUM, Strain/Indicator: TA102, Metabolic Activation: RAT LIVER S-9, PHENOBARBITAL AND BETA-NAPHTHAFLAVONE, Method: STANDARD PLATE): inactive; negative
- mutagenic call (Test System: CHINESE HAMSTER V-79, Strain/Indicator: V79 (HPRT)/6-THIOGUANINE, Metabolic Activation: NONE): inactive; negative

Structure (SMILES): CCOC(=O)OC(=O)OCC
- mutagenic call [6]: inactive; negative
- mutagenic call [7]: inactive; negative

Structure (SMILES): CCCCCCCC/C=C\CCCCCCCC(N)=O
- mutagenic call (Test System: Ames Salmonella typhimurium, Strain/Indicator: TA98, Metabolic Activation: None, Method: Preincubation): inactive; negative. precipitation at 3 highest doses.
- mutagenic call (Test System: Ames Salmonella typhimurium, Strain/Indicator: TA98, Metabolic Activation: Rat, Liver, S9, Phenobarbital and 5,6-benzoflavone, Method: Preincubation): inactive; negative. precipitation at 3 highest doses.
- mutagenic call (Test System: Ames Salmonella typhimurium, Strain/Indicator: TA100, Metabolic Activation: None, Method: Preincubation): inactive; negative. precipitation at 3 highest doses.
- mutagenic call (Test System: Ames Salmonella typhimurium, Strain/Indicator: TA100, Metabolic Activation: Rat, Liver, S9, Phenobarbital and 5,6-benzoflavone, Method: Preincubation): inactive; negative. precipitation at 3 highest doses.
- mutagenic call (Test System: Ames Salmonella typhimurium, Strain/Indicator: TA1535, Metabolic Activation: None, Method: Preincubation): inactive; negative. precipitation at 3 highest doses.
- mutagenic call (Test System: Ames Salmonella typhimurium, Strain/Indicator: TA1535, Metabolic Activation: Rat, Liver, S9, Phenobarbital and 5,6-benzoflavone, Method: Preincubation): inactive; negative. precipitation at 3 highest doses.
- mutagenic call (Test System: Ames Salmonella typhimurium, Strain/Indicator: TA1537, Metabolic Activation: None, Method: Preincubation): inactive; negative. precipitation at 3 highest doses.
- mutagenic call (Test System: Ames Salmonella typhimurium, Strain/Indicator: TA1537, Metabolic Activation: Rat, Liver, S9, Phenobarbital and 5,6-benzoflavone, Method: Preincubation): inactive; negative. precipitation at 3 highest doses.
- mutagenic call (Test System: E. coli, Strain/Indicator: WP2uvrA/pKM101, Metabolic Activation: None, Method: Preincubation): inactive; negative. precipitation at 3 highest doses.
- mutagenic call (Test System: E. coli, Strain/Indicator: WP2uvrA/pKM101, Metabolic Activation: Rat, Liver, S9, Phenobarbital and 5,6-benzoflavone, Method: Preincubation): inactive; negative. precipitation at 3 highest doses.

Structure (SMILES): NNC(=O)c1[nH]c2ccccc2c1N
- mutagenic call [1]: active; positive
- mutagenic call (Test System: AMES SALMONELLA TYPHIMURIUM, Strain/Indicator: TA97, Metabolic Activation: S-9 (10%), Method: PREINCUBATION): inactive; negative
- mutagenic call [2]: active; positive
- mutagenic call (Test System: AMES SALMONELLA TYPHIMURIUM, Strain/Indicator: TA98, Metabolic Activation: S-9 (10%), Method: PREINCUBATION): inactive; negative
- mutagenic call [3]: inactive; negative
- mutagenic call (Test System: AMES SALMONELLA TYPHIMURIUM, Strain/Indicator: TA100, Metabolic Activation: S-9 (10%), Method: PREINCUBATION): inactive; negative
- mutagenic call (Test System: AMES SALMONELLA TYPHIMURIUM, Strain/Indicator: TA102, Metabolic Activation: NONE, Method: PREINCUBATION): inactive; negative
- mutagenic call (Test System: AMES SALMONELLA TYPHIMURIUM, Strain/Indicator: TA102, Metabolic Activation: S-9 (10%), Method: PREINCUBATION): inactive; negative

Structure (SMILES): Cc1nc2ccc(N(C)C)c(C)c2nc1C
- mutagenic call [2]: inactive; negative
- mutagenic call (Test System: AMES SALMONELLA TYPHIMURIUM, Strain/Indicator: TA98, Metabolic Activation: RAT, LIVER, S-9, PCB, Method: PREINCUBATION): active; positive
- mutagenic call [3]: inactive; negative
- mutagenic call (Test System: AMES SALMONELLA TYPHIMURIUM, Strain/Indicator: TA100, Metabolic Activation: RAT, LIVER, S-9, PCB, Method: PREINCUBATION): active; positive
